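Test compounds were applied to cells in 96-well plates for 48 hours at 5 doses. GI50: concentration for 50% inhibition of growth.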 Activity calls are given as the source filed them. No stated cut-off is given here; in the data, active = GI50 up to about 1.1 µM and inactive = higher.
What was measured:
Experiment in all cases: NCI tumour cell line growth inhibition, 48 h
[1] = tested on: RXF 393
[2] = tested on: NCI-H460
[3] = tested on: HOP-62
[4] = tested on: M14
[5] = tested on: K562
[6] = tested on: OVCAR-5
[7] = tested on: DU-145
[8] = tested on: MCF7
[9] = tested on: CCRF-CEM
[10] = tested on: SR
[11] = tested on: PC-3
[12] = tested on: HCC 2998
[13] = tested on: OVCAR-8
[14] = tested on: SF-268
[15] = tested on: HT-29
[16] = tested on: Malme-3M
[17] = tested on: OVCAR-4
[18] = tested on: COLO 205
[19] = tested on: NCI-H522
[20] = tested on: CAKI-1

SMILES | GI50 [1] | GI50 [2] | GI50 [3] | GI50 [4] | GI50 [5] | GI50 [6] | GI50 [7] | GI50 [8] | GI50 [9] | GI50 [10] | GI50 [11] | GI50 [12] | GI50 [13] | GI50 [14] | GI50 [15] | GI50 [16] | GI50 [17] | GI50 [18] | GI50 [19] | GI50 [20]
O=C1C(NCCN2CCOCC2)=C(Cl)C(=O)c2ncccc21 | 0.327 µM (active) | 0.445 µM (active) | 1.6 µM (inactive) | 0.469 µM (active) | 0.179 µM (active) | 1.7 µM (inactive) | 1.01 µM (active) | 0.326 µM (active) | 0.214 µM (active) | 1.32 µM (inactive) | 0.289 µM (active) | 0.625 µM (active) | 0.377 µM (active) | 1.52 µM (inactive) | 0.637 µM (active) | 0.564 µM (active) |  |  |  | 
CCN(CC)CCNc1ccc([N+](=O)[O-])c2nc3ccc(OC)cc3c(N)c12 | 1.16 µM (inactive) | 1.22 µM (inactive) | 1.7 µM (inactive) | 1.37 µM (inactive) | 0.238 µM (active) | 1.7 µM (inactive) | 1.65 µM (inactive) | 0.43 µM (active) | 0.248 µM (active) | 0.262 µM (active) | 1.36 µM (inactive) |  | 1.47 µM (inactive) | 1.65 µM (inactive) | 0.394 µM (active) | 1.78 µM (inactive) | 1.22 µM (inactive) | 0.4 µM (active) | 0.309 µM (active) | 1.89 µM (inactive)
COc1ccc(-c2c3c(n(C4OC(COC(C)=O)C(OC(C)=O)C(OC(C)=O)C4OC(C)=O)c(=S)c2C#N)CCC3)cc1 (centres undefined) | 92.3 µM (inactive) | > 100 µM (inactive) | > 100 µM (inactive) | > 100 µM (inactive) | > 100 µM (inactive) | > 100 µM (inactive) | > 100 µM (inactive) | > 100 µM (inactive) | > 100 µM (inactive) | > 100 µM (inactive) | > 100 µM (inactive) | > 100 µM (inactive) |  | > 100 µM (inactive) | > 100 µM (inactive) | > 100 µM (inactive) | > 100 µM (inactive) | 86.9 µM (inactive) |  | > 100 µM (inactive)
CC(C)CCCC(C)[C@H]1CC[C@H]2n3c(nnc3-c3ccccc3)CCC[C@]12C (some centres undefined) | 11.5 µM (inactive) | 9.91 µM (inactive) | 16 µM (inactive) | 12.8 µM (inactive) | 3.8 µM (inactive) |  | 16.2 µM (inactive) | 5.97 µM (inactive) | 3.49 µM (inactive) | 4.06 µM (inactive) | 9.33 µM (inactive) | < 0.01 µM (active) | 15.9 µM (inactive) | 12.7 µM (inactive) | 17.5 µM (inactive) | 23.2 µM (inactive) | 12.5 µM (inactive) | 3.21 µM (inactive) |  | 14 µM (inactive)
Cc1ccc2c(c1)C(C(=O)N[C@@H]1C(=O)N3[C@@H]1SC(C)(C)[C@@H]3C(=O)O)OCCC2 (some centres undefined) | > 100 µM (inactive) | > 100 µM (inactive) | > 100 µM (inactive) | > 100 µM (inactive) | > 100 µM (inactive) | > 100 µM (inactive) | > 100 µM (inactive) | > 100 µM (inactive) | > 100 µM (inactive) | > 100 µM (inactive) | > 100 µM (inactive) | > 100 µM (inactive) | > 100 µM (inactive) | > 100 µM (inactive) | > 100 µM (inactive) |  | > 100 µM (inactive) | > 100 µM (inactive) | > 100 µM (inactive) | > 100 µM (inactive)
O=C(Nc1cccc(C(F)(F)F)c1)O/N=C(/Cl)CCl |  | > 100 µM (inactive) | > 100 µM (inactive) | > 100 µM (inactive) | 29.6 µM (inactive) | 21.8 µM (inactive) | > 100 µM (inactive) | 21.6 µM (inactive) | 30.2 µM (inactive) | 22.6 µM (inactive) | 96.6 µM (inactive) | > 100 µM (inactive) | > 100 µM (inactive) | > 100 µM (inactive) | 51.9 µM (inactive) | > 100 µM (inactive) | 63.2 µM (inactive) | 67.5 µM (inactive) |  | > 100 µM (inactive)
COC(=O)C1(c2cc3ccccc3n2S(=O)(=O)c2ccccc2)CC2C=CC1NC2 (centres undefined) | 1.76 µM (inactive) | 3.11 µM (inactive) | 1.66 µM (inactive) | 1.79 µM (inactive) | 1.77 µM (inactive) | 2.25 µM (inactive) | 2.4 µM (inactive) | 1.5 µM (inactive) | 0.735 µM (active) | 0.216 µM (active) | 1.61 µM (inactive) | 1.98 µM (inactive) | 1.95 µM (inactive) |  | 1.79 µM (inactive) |  | 1.98 µM (inactive) | 2.17 µM (inactive) |  | 1.82 µM (inactive)
CCOC(=O)/C=C/CCC(C)(C)COC(C)=O | > 10 µM (inactive) | > 10 µM (inactive) | > 10 µM (inactive) | > 10 µM (inactive) | > 10 µM (inactive) | > 10 µM (inactive) | > 10 µM (inactive) | > 10 µM (inactive) | > 10 µM (inactive) | > 10 µM (inactive) | > 10 µM (inactive) | > 10 µM (inactive) | > 10 µM (inactive) | > 10 µM (inactive) | > 10 µM (inactive) |  | > 10 µM (inactive) | > 10 µM (inactive) | > 10 µM (inactive) | > 10 µM (inactive)
O=S(=O)(/N=S(/Nc1ccccc1)C(F)(F)Cl)c1ccccc1 (centres undefined) | > 100 µM (inactive) | > 100 µM (inactive) | > 100 µM (inactive) | > 100 µM (inactive) | > 100 µM (inactive) | > 100 µM (inactive) | > 100 µM (inactive) | > 100 µM (inactive) | > 100 µM (inactive) | > 100 µM (inactive) | > 100 µM (inactive) |  | > 100 µM (inactive) | > 100 µM (inactive) | > 100 µM (inactive) | > 100 µM (inactive) | > 100 µM (inactive) | > 100 µM (inactive) |  | 
Cc1cn(CCCCCOC(=O)NC(CCCNC(N)=O)C(=O)O)c(=O)[nH]c1=O (centres undefined) | > 100 µM (inactive) | > 100 µM (inactive) | > 100 µM (inactive) | > 100 µM (inactive) | > 100 µM (inactive) | > 100 µM (inactive) | > 100 µM (inactive) | > 100 µM (inactive) | > 100 µM (inactive) | > 100 µM (inactive) | > 100 µM (inactive) | > 100 µM (inactive) | > 100 µM (inactive) | > 100 µM (inactive) | > 100 µM (inactive) |  | > 100 µM (inactive) | > 100 µM (inactive) |  | > 100 µM (inactive)
Nc1nn2c(=O)c3ccccc3nc2s1 | > 100 µM (inactive) | > 100 µM (inactive) | > 100 µM (inactive) | 28.6 µM (inactive) | 28.4 µM (inactive) | > 100 µM (inactive) | > 100 µM (inactive) | 50.1 µM (inactive) | 18.2 µM (inactive) | 20.5 µM (inactive) | > 100 µM (inactive) | > 100 µM (inactive) | 30 µM (inactive) | 38.8 µM (inactive) | 41.2 µM (inactive) |  | > 100 µM (inactive) | 35.4 µM (inactive) | 17.5 µM (inactive) | > 100 µM (inactive)
CCC(C)SC1SCC2C(=O)N(C)C3(CC3C)C(=O)OCC(NC(=O)c3nc4ccccc4cc3O)C(=O)NC(C)C(=O)N(C)C1C(=O)N(C)C1(CC1C)C(=O)OCC(NC(=O)c1nc3ccccc3cc1O)C(=O)NC(C)C(=O)N2C (centres undefined) | 4.76e-05 µM (active) | 4.82e-05 µM (active) | 5.64e-05 µM (active) | 0.000116 µM (active) | 2.77e-05 µM (active) | 0.00018 µM (active) | 0.000188 µM (active) | 1.2e-05 µM (active) | 8.73e-05 µM (active) | 2.79e-05 µM (active) | 0.000116 µM (active) | 0.000103 µM (active) | 9.1e-05 µM (active) | 4.81e-05 µM (active) |  | 4.12e-05 µM (active) |  | 5.01e-05 µM (active) |  | 0.01 µM (active)
CC1=Nc2c(C#N)ncn2N=C(C)C1 | > 100 µM (inactive) | > 100 µM (inactive) | > 100 µM (inactive) | > 100 µM (inactive) | > 100 µM (inactive) | > 100 µM (inactive) | > 100 µM (inactive) | > 100 µM (inactive) | 70.5 µM (inactive) | > 100 µM (inactive) | > 100 µM (inactive) |  |  | > 100 µM (inactive) | > 100 µM (inactive) |  | > 100 µM (inactive) | > 100 µM (inactive) |  | > 100 µM (inactive)
COC1CC(OC2C(C)OC(OC3C(C)OC(OC4C(C)OC(O[C@H]5CC[C@@]6(C)C(=CC[C@]7(O)[C@@H]6C[C@@H](OC(C)=O)[C@@]6(C)[C@]7(O)CC[C@@]6(O)C(C)=O)C5)CC4OC)CC3OC)CC2OC)OC(C)C1O (some centres undefined) |  |  | > 25 µM (inactive) | > 25 µM (inactive) | > 25 µM (inactive) | > 25 µM (inactive) | > 25 µM (inactive) | > 25 µM (inactive) | > 25 µM (inactive) | > 25 µM (inactive) | > 25 µM (inactive) | > 25 µM (inactive) | > 25 µM (inactive) | > 25 µM (inactive) | > 25 µM (inactive) | > 25 µM (inactive) | > 25 µM (inactive) | > 25 µM (inactive) | > 25 µM (inactive) | > 25 µM (inactive)
CCc1cc2c(oc3c4ccccc4ccc23)c(=O)[nH]1 | > 10 µM (inactive) | > 10 µM (inactive) |  | > 10 µM (inactive) | > 10 µM (inactive) | > 10 µM (inactive) | > 10 µM (inactive) | > 10 µM (inactive) | > 10 µM (inactive) | > 10 µM (inactive) | > 10 µM (inactive) |  | > 10 µM (inactive) | > 10 µM (inactive) | > 10 µM (inactive) |  | > 10 µM (inactive) |  | > 10 µM (inactive) | 

Source: ChEMBL document CHEMBL1201862, “PubChem BioAssay data set” (2004)
